Data from ChEMBL document CHEMBL5137095, “N-Benzyl Benzamide Derivatives as Selective Sub-Nanomolar Butyrylcholinesterase Inhibitors for Possible Treatment in Advanced Alzheimer's Disease” (J Med Chem, 2022).

Columns and labels:
[1] = Cytotoxicity against human SH-SY5Y cells assessed as cell survival rate at 10 uM by MTT assay; type: toxicity, cell-based; conditions: read-out: Activity
[2] = system: SH-SY5Y; test: Cytotoxicity against human SH-SY5Y cells assessed as reduction in cell viability at 10 uM by MTT assay; type: toxicity, cell-based
[3] = Cytotoxicity against mouse HT-22 cells assessed as cell survival rate at 10 uM by MTT assay; type: toxicity, cell-based; conditions: read-out: Activity
[4] = system: SH-SY5Y; test: Neuroprotective activity against amyloid beta (1 to 42)-induced cell damage in human SH-SY5Y cells assessed as cell survival at 5 uM pretreated for 2 hrs followed by amyloid beta (1 to 42) addition and measured after 24 hrs by MTT assay; type: functional; conditions: time 26 hrs, read-out: Activity
[5] = system: SH-SY5Y; test: Neuroprotective activity against amyloid beta (1 to 42)-induced cell damage in human SH-SY5Y cells assessed as cell survival at 2 uM pretreated for 2 hrs followed by amyloid beta (1 to 42) addition and measured after 24 hrs by MTT assay; type: functional; conditions: time 26 hrs, read-out: Activity
[6] = system: PC-12; test: Neuroprotective activity against H2O2-induced cell damage in rat PC-12 cells assessed as survival rate at 5 to 10 uM pretreated for 2 hrs followed by H2O2 addition and measured after 24 hrs by MTT assay; type: functional; conditions: dose 5-10 µM, time 26 hrs
[7] = n-octanol-water partition coefficient, log P of the compound by HPLC analysis; type: physicochemical
[8] = Cytotoxicity against rat PC-12 cells assessed as cell survival rate at 10 uM by MTT assay; type: toxicity, cell-based; conditions: read-out: Activity
[9] = system: SH-SY5Y; test: Neuroprotective activity against amyloid beta (1 to 42)-induced cell damage in human SH-SY5Y cells assessed as cell survival rate at 25 uM pretreated for 2 hrs followed by amyloid beta (1 to 42) addition and measured after 24 hrs by MTT assay; type: functional; conditions: time 26 hrs
[10] = system: PC-12; test: Cytotoxicity against rat PC-12 cells assessed as reduction in cell viability at 10 uM by MTT assay; type: toxicity, cell-based; conditions: pc-12, 10 µM
[11] = Permeability of compound incubated for 18 hrs by PAMPA-BBB assay; type: ADME; conditions: read-out: permeability
[12] = Cytotoxicity against mouse BV-2 cells assessed as cell survival rate at 10 uM by MTT assay; type: toxicity, cell-based; conditions: read-out: Activity
[13] = system: BV-2; test: Cytotoxicity against mouse BV-2 cells assessed as reduction in cell viability at 10 uM by MTT assay; type: toxicity, cell-based; conditions: bv-2, 10 µM
[14] = system: HT-22; test: Cytotoxicity against mouse HT-22 cells assessed as reduction in cell viability at 10 uM by MTT assay; type: toxicity, cell-based; conditions: ht-22, 10 µM
[15] = target: T1, Cholinesterase (Homo sapiens, UniProt P06276); test: Inhibition of human BChE using acetylthiocholine iodide or butyrylthiocholine iodide as substrate preincubated for 5 mins followed by substrate addition by Ellman's method
[16] = target: Cholinesterase (Equus caballus, UniProt P81908); test: Inhibition of horse serum BChE using acetylthiocholine iodide or butyrylthiocholine iodide as substrate preincubated for 5 mins followed by substrate addition by Ellman's method
[17] = system: SH-SY5Y; test: Neuroprotective activity against GA-induced cell damage in human SH-SY5Y cells assessed as survival rate at 5 uM pretreated for 2 hrs followed by GA addition and measured after 24 hrs by MTT assay; type: functional
[18] = target: T1, Cholinesterase; test: Inhibition of human BChE assessed as inhibition constant
[19] = Acute toxicity in ICR mouse assessed as increase in body weight at 1000 mg/kg, po measured after 14 days; type: organism-based; conditions: in vivo, 336 h, time 14 day
[20] = Acute toxicity in ICR mouse assessed as abnormal behavior at 1000 mg/kg, po measured after 4 hrs; type: organism-based; conditions: in vivo
[21] = Acute toxicity in ICR mouse assessed as effect on consumption of water and food at 1000 mg/kg, po measured after 14 days; type: organism-based; conditions: in vivo, 336 h, time 14 day
[22] = target: T1, Cholinesterase; test: Binding affinity to human BChE assessed as dissociation constant by surface plasmon resonance assay
[23] = Inhibition of human BChE assessed as inhibition constant

Cholinesterase (Equus caballus, UniProt P81908), sequence (P81908 whole entry): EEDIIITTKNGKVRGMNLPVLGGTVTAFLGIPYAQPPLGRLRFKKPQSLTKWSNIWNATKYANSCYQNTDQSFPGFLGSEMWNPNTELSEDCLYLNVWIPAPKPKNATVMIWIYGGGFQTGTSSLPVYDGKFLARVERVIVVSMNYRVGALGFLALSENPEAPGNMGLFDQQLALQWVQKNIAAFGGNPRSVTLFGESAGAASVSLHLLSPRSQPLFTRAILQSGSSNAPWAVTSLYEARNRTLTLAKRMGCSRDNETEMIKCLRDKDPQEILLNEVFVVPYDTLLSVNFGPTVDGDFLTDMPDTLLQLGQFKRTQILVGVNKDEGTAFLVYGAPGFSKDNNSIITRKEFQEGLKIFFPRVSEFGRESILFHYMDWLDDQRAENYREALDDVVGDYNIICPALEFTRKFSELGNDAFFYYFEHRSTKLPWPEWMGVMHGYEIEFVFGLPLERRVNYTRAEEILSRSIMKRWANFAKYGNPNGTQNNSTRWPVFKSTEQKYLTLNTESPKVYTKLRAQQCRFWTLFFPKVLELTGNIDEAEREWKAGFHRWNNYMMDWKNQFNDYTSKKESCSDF
T1 sequence (P06276 whole entry): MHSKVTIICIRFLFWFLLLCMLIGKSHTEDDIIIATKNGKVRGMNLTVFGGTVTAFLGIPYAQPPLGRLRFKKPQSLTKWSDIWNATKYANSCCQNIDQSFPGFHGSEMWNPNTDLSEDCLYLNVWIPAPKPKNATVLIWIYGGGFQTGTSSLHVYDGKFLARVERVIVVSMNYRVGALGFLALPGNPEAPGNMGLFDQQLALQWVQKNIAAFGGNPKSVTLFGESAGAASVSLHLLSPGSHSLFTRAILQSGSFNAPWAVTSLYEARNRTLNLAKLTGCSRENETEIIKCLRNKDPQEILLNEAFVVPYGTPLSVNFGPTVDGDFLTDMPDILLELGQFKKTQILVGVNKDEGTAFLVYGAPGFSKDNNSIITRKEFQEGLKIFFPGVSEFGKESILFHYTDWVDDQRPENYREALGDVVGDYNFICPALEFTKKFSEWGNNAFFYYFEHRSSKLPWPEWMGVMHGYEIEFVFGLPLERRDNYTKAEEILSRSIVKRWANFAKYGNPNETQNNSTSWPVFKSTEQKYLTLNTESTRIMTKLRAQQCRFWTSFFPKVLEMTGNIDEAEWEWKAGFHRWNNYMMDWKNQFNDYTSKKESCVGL

SMILES | viability at 10 µM [1] [%] | Activity [2] | viability at 10 µM [3] [%] | logP [7] | viability at 10 µM [8] [%] | Activity [10] | Papp at 18 h [11] [×10⁻⁶ cm/s] | viability at 10 µM [12] [%] | Activity [13] | Activity [14] | IC50 [15] [nM] | IC50 [16] [nM] | other results
CN(C)Cc1ccccc1CNC(=O)c1cccc(NC(=O)c2cccs2)c1 | > 70 | Non-Toxic | > 70 | 1.93 | > 70 | Non-Toxic | 6.82 | > 70 | Non-Toxic | Non-Toxic | – | – | viability at 5 µM [4]: 68%; viability at 2 µM [5]: 82.6%; Activity [6]: 61.7%; Activity [9]: 64.12%
CCN(CC)Cc1ccccc1CNC(=O)c1cc(Cl)cc(NC(=O)c2ccc(F)cc2)c1 | > 70 | Non-Toxic | > 70 | 1.11 | > 70 | Non-Toxic | 7.54 | > 70 | Non-Toxic | Non-Toxic | 0.22 | 0.16 | –
CCN(CC)Cc1ccccc1CNC(=O)c1cccc(NC(=O)c2cccs2)c1 | > 70 | Non-Toxic | > 70 | 2.11 | > 70 | Non-Toxic | 19 | > 70 | Non-Toxic | Non-Toxic | 0.35 | – | –
CCN(CC)Cc1ccccc1CNC(=O)c1cc(NC(=O)c2ccc(F)cc2)cc([N+](=O)[O-])c1 | > 70 | Non-Toxic | > 70 | – | > 70 | Non-Toxic | – | > 70 | Non-Toxic | Non-Toxic | 1.04 | 1.27 | –
CCN(CC)Cc1ccccc1CNC(=O)c1cccc(NC(=O)c2ccc(OC)cc2)c1 | > 70 | Non-Toxic | > 70 | – | > 70 | Non-Toxic | – | > 70 | Non-Toxic | Non-Toxic | – | – | –
CCN(CC)Cc1ccccc1CNC(=O)c1cccc(NC(=O)c2ccc(C)cc2)c1 | > 70 | Non-Toxic | > 70 | – | > 70 | Non-Toxic | – | > 70 | Non-Toxic | Non-Toxic | 45 | 77.3 | –
CCN(CC)Cc1ccccc1CNC(=O)c1cc(Br)cc(NC(=O)c2ccc(F)cc2)c1 | – | – | – | 2.04 | – | – | 6.93 | – | – | – | 0.58 | 0.42 | Activity [17]: 70%
CCN(CC)Cc1ccccc1CNC(=O)c1cc(C)cc(NC(=O)c2ccc(F)cc2)c1 | – | – | – | 1.26 | – | – | 9.17 | – | – | – | 0.039 | 0.021 | Ki [18]: 0.094 nM; Activity [19]: Non-Toxic; Activity [20]: Non-Toxic; Activity [21]: Non-Toxic; Kd [22]: 0.064 nM
CCN(CC)Cc1ccccc1CNC(=O)c1cccc(NC(=O)c2ccco2)c1 | > 70 | Non-Toxic | > 70 | – | > 70 | Non-Toxic | 6.89 | > 70 | Non-Toxic | Non-Toxic | 0.26 | – | –
CCCN(CCC)Cc1ccccc1CNC(=O)c1cccc(NC(=O)c2cccs2)c1 | > 70 | Non-Toxic | > 70 | 1.02 | > 70 | Non-Toxic | 8.69 | > 70 | Non-Toxic | Non-Toxic | 0.67 | – | Activity [6]: 61.7%
CCN(CC)Cc1ccccc1CNC(=O)c1cc(NC(=O)c2ccc(F)cc2)ccc1C | > 70 | Non-Toxic | > 70 | – | > 70 | Non-Toxic | – | > 70 | Non-Toxic | Non-Toxic | 2.71 | 1.35 | –
CCN(CC)C(C)CN1c2ccccc2Sc2ccccc21 (stereo not drawn) [ETHOPROPAZINE] | – | – | – | – | – | – | – | – | – | – | – | – | Ki [23]: 20 nM
Cc1ccc2c(c1)sc(-c1ccc(N(C)C)cc1)[n+]2C [THIOFLAVIN T] | – | – | – | – | – | – | – | – | – | – | – | – | Ki [18]: 800 nM
